Reference: ChEMBL document CHEMBL1201862, “PubChem BioAssay data set” (2004)
Each block holds one molecule with its values, some of them ahead of it. Calls of active or inactive are those of the source. Rule as the data show it, for most assays here: actives have a measured IC50 and inactives only a lower limit.

Tests used:
Caspase-3 = molecular target: T1, Caspase-3 (Homo sapiens, UniProt P42574); assay: SAR Analysis of small molecule inhibitors of Sentrin-specific proteases (SENPs) using a Caspase-3 Selectivity assay. [Related pubchem assays (depositor defined):AID2540, AID2599, AID434973, AID489001]; assay type: functional
T1 sequence (P42574 whole entry): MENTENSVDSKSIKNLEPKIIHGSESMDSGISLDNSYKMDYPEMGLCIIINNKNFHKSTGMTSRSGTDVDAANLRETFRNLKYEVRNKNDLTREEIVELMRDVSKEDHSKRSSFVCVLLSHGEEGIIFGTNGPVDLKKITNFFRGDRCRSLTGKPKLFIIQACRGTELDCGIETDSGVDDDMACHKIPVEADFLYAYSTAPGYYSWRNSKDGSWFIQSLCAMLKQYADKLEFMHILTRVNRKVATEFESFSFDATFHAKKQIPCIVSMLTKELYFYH

[1] = molecular target: T2, Sentrin-specific protease 7 (Homo sapiens, UniProt Q9BQF6); assay: inhibition of human SENP7 cleavage activity – biochemical, luminescence, SAR follow-up (AID 504497); assay type: functional
T2 sequence (Q9BQF6 whole entry): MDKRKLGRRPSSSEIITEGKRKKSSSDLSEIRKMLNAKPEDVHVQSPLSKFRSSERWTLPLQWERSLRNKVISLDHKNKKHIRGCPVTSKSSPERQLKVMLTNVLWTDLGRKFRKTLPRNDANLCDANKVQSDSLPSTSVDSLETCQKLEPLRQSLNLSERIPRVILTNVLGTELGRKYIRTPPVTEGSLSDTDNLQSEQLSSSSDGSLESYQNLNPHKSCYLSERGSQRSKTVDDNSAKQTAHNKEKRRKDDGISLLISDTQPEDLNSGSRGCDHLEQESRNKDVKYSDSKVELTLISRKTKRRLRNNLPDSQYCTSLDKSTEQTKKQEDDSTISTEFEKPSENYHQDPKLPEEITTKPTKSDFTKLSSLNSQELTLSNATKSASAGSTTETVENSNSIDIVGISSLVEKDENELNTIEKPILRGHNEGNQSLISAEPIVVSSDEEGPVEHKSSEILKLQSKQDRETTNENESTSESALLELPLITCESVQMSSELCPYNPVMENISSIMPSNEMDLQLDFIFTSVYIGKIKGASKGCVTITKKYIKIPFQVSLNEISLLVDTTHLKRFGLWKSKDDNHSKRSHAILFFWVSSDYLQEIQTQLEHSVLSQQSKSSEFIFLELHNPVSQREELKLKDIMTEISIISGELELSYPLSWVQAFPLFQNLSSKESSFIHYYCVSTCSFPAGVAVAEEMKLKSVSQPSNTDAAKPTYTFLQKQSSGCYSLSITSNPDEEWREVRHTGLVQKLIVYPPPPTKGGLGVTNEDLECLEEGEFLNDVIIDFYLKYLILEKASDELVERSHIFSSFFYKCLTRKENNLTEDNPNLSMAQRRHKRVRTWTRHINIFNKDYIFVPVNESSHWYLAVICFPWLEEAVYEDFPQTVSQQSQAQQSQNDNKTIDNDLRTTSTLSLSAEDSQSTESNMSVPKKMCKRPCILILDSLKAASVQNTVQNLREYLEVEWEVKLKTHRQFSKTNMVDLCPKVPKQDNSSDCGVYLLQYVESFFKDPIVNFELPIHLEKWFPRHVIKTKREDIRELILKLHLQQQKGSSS

[2] = molecular target: T3, Sentrin-specific protease 8 (Homo sapiens, UniProt Q96LD8); assay: inhibition of human SENP8 cleavage activity – biochemical, luminescence, SAR follow-up (AID 504501); assay type: functional
T3 sequence (Q96LD8 whole entry): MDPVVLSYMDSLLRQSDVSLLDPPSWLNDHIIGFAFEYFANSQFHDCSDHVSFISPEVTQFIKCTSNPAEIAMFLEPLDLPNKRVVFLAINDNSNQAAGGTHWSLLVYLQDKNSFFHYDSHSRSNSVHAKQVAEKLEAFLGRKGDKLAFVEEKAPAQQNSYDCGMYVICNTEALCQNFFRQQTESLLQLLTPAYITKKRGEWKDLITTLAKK

[3] = molecular target: T4, Sentrin-specific protease 6 (Homo sapiens, UniProt Q9GZR1); assay: SAR Analysis of small molecule inhibitors of Sentrin-specific protease 6 (SENP6) using a Luminescent assay. [Related pubchem assays (depositor defined):AID2582, AID2599]; assay type: functional
T4 sequence (Q9GZR1 whole entry): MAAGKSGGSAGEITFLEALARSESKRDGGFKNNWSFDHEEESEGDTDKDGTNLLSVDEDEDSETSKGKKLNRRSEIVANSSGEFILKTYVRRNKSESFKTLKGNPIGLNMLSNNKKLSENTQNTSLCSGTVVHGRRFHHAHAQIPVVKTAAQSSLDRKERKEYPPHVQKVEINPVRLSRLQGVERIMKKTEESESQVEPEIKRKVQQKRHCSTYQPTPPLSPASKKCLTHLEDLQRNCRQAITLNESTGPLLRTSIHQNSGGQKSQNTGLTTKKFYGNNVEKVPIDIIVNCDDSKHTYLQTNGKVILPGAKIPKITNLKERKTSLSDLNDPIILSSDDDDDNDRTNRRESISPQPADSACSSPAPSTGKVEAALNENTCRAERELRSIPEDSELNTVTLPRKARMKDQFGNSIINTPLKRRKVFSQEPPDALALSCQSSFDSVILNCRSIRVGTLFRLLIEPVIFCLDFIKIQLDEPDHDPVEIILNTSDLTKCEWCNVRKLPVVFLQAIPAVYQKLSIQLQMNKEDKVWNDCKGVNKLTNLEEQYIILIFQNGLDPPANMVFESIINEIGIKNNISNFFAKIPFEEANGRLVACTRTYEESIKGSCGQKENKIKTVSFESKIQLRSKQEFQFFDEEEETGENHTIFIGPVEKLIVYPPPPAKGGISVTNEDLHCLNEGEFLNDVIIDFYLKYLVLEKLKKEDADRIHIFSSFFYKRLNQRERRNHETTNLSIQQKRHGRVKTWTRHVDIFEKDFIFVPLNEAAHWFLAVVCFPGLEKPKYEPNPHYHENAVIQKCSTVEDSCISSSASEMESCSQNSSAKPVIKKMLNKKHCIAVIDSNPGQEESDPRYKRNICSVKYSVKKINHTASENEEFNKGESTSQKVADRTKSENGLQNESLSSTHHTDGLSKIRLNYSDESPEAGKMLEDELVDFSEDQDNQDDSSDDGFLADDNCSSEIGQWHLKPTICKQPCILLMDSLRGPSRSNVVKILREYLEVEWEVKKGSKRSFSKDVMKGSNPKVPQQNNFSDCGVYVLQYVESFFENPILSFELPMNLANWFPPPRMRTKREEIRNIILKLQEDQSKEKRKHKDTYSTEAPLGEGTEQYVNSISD

[4] = molecular target: 26S proteasome non-ATPase regulatory subunit 14 (Homo sapiens, UniProt O00487); assay: inhibition of proteasome subunit RPN11 – biochemical, fluorescence polarization, uHTS hits, confirmation (AID 602368); assay type: functional
[5] = molecular target: 72 kDa type IV collagenase (Homo sapiens, UniProt P08253); assay: Dose Response validation of uHTS RPN11 inhibitor hits using a MMP-2 Fluorescence assay.; assay type: functional
[6] = molecular target: T5, Carboxy-terminal domain RNA polymerase II polypeptide A small phosphatase 1 (Homo sapiens, UniProt Q9GZU7); assay: CTDSP1 inhibitors, concentration-response, biochemical, absorbance readout, ultra-high-throughput screen actives (AID 540297); assay type: functional
T5 sequence (Q9GZU7 whole entry): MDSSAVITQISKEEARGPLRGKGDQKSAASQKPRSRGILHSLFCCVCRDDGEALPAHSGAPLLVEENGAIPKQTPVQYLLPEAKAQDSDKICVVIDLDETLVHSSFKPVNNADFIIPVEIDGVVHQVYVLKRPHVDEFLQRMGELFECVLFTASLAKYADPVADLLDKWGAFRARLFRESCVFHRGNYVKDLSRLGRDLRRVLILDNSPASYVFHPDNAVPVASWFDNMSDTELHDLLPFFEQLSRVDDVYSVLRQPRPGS

Prothrombin = Prothrombin (Bos taurus, UniProt P00735); assay: thrombin protease inhibitors – biochemical, fluorescence polarization, uHTS hits, dose response (AID 602369); assay type: functional
[7] = molecular target: T6, Apoptotic protease-activating factor 1 (Homo sapiens, UniProt O14727); assay type: functional
T6 sequence (O14727 whole entry): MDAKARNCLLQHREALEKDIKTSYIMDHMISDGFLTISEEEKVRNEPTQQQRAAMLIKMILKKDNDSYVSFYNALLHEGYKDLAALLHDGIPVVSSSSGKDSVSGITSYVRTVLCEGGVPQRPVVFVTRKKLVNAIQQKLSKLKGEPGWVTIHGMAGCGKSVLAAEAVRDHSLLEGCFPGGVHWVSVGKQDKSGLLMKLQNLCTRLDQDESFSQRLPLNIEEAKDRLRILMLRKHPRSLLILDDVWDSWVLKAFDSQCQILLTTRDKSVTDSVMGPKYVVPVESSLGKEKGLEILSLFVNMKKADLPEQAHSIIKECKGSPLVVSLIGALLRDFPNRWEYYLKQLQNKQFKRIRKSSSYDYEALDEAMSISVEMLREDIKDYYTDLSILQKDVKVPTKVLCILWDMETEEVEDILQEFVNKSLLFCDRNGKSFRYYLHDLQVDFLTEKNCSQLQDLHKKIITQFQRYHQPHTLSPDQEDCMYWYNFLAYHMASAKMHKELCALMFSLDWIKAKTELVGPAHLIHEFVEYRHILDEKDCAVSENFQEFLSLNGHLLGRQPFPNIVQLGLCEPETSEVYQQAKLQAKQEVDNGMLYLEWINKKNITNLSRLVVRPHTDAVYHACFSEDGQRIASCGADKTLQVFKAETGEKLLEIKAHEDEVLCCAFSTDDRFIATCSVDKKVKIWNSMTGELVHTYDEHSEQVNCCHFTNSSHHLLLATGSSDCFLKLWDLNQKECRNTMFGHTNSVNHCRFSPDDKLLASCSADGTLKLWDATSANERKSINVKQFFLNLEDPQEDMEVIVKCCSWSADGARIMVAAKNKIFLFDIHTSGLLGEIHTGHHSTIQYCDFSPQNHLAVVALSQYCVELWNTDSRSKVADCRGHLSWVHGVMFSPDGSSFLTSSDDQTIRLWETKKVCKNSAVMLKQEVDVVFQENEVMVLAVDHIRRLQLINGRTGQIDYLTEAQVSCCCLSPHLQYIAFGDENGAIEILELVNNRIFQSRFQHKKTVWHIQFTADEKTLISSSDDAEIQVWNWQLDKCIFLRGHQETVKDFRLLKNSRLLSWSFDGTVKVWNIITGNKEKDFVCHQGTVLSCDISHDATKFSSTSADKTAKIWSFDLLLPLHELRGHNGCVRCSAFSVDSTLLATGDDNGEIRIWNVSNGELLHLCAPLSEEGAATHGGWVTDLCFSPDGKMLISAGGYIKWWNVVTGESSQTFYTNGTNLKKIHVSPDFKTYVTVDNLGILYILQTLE

HEK293 [8] = assay: membrane integrity loss in HEK cells – cell-based, fluorescence, cytotoxicity control for IDE activator project, dose response (AID 588440); assay type: functional; conditions: Homo sapiens;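 also: cytotoxicity by LDH release measuring loss of membrane integrity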
Insulin-degrading enzyme [9] = molecular target: T7, Insulin-degrading enzyme (Homo sapiens, UniProt P14735); assay: recombinant IDE activation, cell-free – biochemical, fluorescence polarization, counter-screen for IDE activator project, dose response (AID 588681)
T7 sequence (P14735 whole entry): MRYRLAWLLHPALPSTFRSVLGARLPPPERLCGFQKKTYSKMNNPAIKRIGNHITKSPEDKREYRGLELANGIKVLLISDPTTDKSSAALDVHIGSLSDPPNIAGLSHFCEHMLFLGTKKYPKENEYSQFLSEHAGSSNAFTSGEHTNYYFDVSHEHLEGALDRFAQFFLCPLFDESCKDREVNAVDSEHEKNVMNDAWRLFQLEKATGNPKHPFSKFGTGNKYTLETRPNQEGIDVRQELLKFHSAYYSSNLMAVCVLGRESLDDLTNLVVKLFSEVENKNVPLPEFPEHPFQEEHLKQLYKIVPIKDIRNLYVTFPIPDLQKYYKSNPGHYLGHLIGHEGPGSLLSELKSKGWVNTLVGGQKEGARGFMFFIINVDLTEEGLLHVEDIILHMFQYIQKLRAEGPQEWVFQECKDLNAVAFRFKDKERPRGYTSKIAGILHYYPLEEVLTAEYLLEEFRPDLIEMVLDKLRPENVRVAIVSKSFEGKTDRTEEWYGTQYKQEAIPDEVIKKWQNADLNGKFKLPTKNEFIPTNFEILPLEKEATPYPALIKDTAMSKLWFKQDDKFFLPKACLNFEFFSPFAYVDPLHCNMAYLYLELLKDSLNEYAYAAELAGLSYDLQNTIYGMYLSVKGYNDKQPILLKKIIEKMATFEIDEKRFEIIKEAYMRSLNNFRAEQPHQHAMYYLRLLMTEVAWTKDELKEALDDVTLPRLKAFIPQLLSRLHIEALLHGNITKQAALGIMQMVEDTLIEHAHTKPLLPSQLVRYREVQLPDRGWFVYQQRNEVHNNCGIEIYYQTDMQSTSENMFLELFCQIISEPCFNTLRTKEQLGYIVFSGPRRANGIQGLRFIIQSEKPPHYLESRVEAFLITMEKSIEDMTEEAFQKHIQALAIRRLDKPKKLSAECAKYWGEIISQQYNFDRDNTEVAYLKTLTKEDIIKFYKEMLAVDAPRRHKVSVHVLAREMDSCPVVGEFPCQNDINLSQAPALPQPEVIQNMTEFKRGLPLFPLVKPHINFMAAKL

Insulin-degrading enzyme [10] = molecular target: T7, Insulin-degrading enzyme; assay: cellular IDE activation of Abeta substrate cleavage – fluorescence polarization, HEK cells, dose response (AID 588439); assay type: functional, cell-based
HEK293 [11] = assay: optical interference in Abeta FP readout, dose response, artefact control for IDE activator project, biochemical, fluorescence polarization (AID 588442); assay type: functional, cell-based; conditions: Homo sapiens

26S proteasome non-ATPase regulatory subunit 14, sequence (O00487 whole entry): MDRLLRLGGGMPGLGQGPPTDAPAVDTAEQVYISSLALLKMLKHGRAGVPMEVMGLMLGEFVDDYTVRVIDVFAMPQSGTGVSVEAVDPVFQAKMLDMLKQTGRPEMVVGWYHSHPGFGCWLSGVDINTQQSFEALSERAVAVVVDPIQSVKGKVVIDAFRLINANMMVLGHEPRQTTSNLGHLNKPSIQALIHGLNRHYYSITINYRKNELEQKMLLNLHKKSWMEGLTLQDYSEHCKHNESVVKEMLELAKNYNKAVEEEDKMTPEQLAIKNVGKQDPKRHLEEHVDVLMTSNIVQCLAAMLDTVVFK
72 kDa type IV collagenase, sequence (P08253 whole entry, the tested form may be a part): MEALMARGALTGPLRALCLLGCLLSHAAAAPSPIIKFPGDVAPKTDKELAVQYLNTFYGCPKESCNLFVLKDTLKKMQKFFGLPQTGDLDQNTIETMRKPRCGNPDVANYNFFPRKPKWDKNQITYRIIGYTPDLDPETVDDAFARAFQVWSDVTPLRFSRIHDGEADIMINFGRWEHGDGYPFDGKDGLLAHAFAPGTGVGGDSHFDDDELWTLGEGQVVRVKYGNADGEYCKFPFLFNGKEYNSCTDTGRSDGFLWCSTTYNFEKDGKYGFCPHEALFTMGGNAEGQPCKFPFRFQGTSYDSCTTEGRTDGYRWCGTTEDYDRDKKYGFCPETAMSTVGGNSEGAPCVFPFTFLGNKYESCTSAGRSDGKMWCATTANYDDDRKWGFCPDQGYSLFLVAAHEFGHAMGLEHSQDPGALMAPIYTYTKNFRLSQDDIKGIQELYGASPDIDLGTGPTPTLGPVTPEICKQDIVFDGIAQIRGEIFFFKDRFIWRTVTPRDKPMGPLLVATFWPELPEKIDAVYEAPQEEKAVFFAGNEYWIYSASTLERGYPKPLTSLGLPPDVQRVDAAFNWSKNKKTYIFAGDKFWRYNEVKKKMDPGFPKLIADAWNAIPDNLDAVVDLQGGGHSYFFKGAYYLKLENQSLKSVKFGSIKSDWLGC

- IC50 (Caspase-3): > 99 µM (inactive)
- IC50 [1]: > 99 µM (inactive)
- IC50 [3]: > 99 µM (inactive)
SMILES: CN(C)CCN(C(=O)c1ccc(S(=O)(=O)N2CCCCCC2)cc1)c1nc2cc3c(cc2s1)OCCO3
- IC50 [2]: > 99 µM (inactive)

- IC50 (Caspase-3): > 99 µM (inactive)
- IC50 [1]: > 99 µM (inactive)
- IC50 [3]: > 99 µM (inactive)
SMILES: Cc1nn(CC(=O)Nc2sc3c(c2C#N)CCCC3)c(C)c1I
- IC50 [2]: > 99 µM (inactive)

- IC50 [4]: 19.9 µM (active)
- IC50 [5]: > 100 µM (inactive)
- IC50 [6]: 4.4 µM (active)
- IC50 (Prothrombin): 85.3 µM (active)
SMILES: CCN(CC(=O)Nc1c(F)cccc1F)C(=O)CCc1nc2sc3c(c2c(=O)[nH]1)CCCC3

SMILES: CCCCNc1c(-c2ccc(SC(C)CC)cc2)nc2cnccn12 (configuration not stated)
- IC50 [7]: 63.1 µM (active)
- IC50 (HEK293 [8]): 27.4 µM (inactive)
- EC50 (Insulin-degrading enzyme [9]): > 54.7 µM (inactive)
- EC50 (Insulin-degrading enzyme [10]): > 54.7 µM (inactive)
- EC50 (HEK293 [11]): > 55.9 µM (inactive)
